Source: PubChem BioAssay (NCI)
Where “and” joins values, the source holds several entries; their conditions need not be identical. Equal entries are not always repeated.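 Exposure lasted 48 hours, with cells grown in 96-well plates and compounds tested at five concentrations. At the GI50, growth is halved. At the TGI there is no net growth.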 Where a SMILES comes first, the peptide text is derived from it. Bridges are numbered along the chain shown (N, C = ends). Roman numbers before positions name the chains, in order. [ ]: non-standard residue; d: D form. The star is where a group is joined. Quinoxaline2carbonyl = O=C(c1cnc2ccccc2n1)*; NMeV = CN[CH](C(=O)O)C(C)C; NMeC = CN[CH](CS)C(=O)O

How the values were obtained:
Test in all cases: NCI-60 cell line screen, 48 h
RPMI-8226 leukemia = system: RPMI-8226 leukemia
TK-10 renal = system: TK-10 renal
HS 578T breast = system: HS 578T breast
NCI/ADR-RES ovarian = system: NCI/ADR-RES ovarian
T-47D breast = system: T-47D breast
KM12 colon = system: KM12 colon
UACC-257 melanoma = system: UACC-257 melanoma
HCT-15 colon = system: HCT-15 colon
BT-549 breast = system: BT-549 breast
HL-60(TB) leukemia = system: HL-60(TB) leukemia

| SMILES | GI50 (RPMI-8226 leukemia) [µM] | TGI (RPMI-8226 leukemia) [µM] | GI50 (TK-10 renal) [µM] | TGI (TK-10 renal) | GI50 (HS 578T breast) [µM] | TGI (HS 578T breast) [µM] | GI50 (NCI/ADR-RES ovarian) [µM] | TGI (NCI/ADR-RES ovarian) [µM] | GI50 (T-47D breast) [µM] | TGI (T-47D breast) [µM] | GI50 (KM12 colon) [µM] | TGI (KM12 colon) [µM] | GI50 (UACC-257 melanoma) [µM] | TGI (UACC-257 melanoma) | GI50 (HCT-15 colon) [µM] | TGI (HCT-15 colon) [µM] | GI50 (BT-549 breast) [µM] | TGI (BT-549 breast) [µM] | GI50 (HL-60(TB) leukemia) [µM] | TGI (HL-60(TB) leukemia) [µM] |
| --- | --- | --- | --- | --- | --- | --- | --- | --- | --- | --- | --- | --- | --- | --- | --- | --- | --- | --- | --- | --- |
| C#CCOc1cccc(Nc2ncnc3c(NC(=O)CCl)cccc23)c1 | 20.9 | 43.9 | 40.1 | > 100 µM | 24.2 | 77.4 | 32 | > 100 | 15.7 | 39.3 | 17.4 | 37.8 | 45 | > 100 µM | 20.2 | 72.5 | 19.3 | 62.5 | 17.5 | 40.6 |
| Cc1nc2ccccc2c(/C=C/c2ccc(Br)cc2)c1C(=O)/C=C/c1ccccc1 | 1.38 | 5.1 | 2.15 | 3.87 µM |  |  | 2.13 | 5.31 | 1.46 | 3.63 | 1.95 | 4.37 | 1.68 | 3.22 µM | 1.31 | 3.71 | 1.86 | 4.49 | 2.17 | 5.27 |
| C[CH2][Pb]([CH2]C)([CH2]C)[O]C(=O)c1ccc2ccccc2n1 | > 10 | > 10 |  |  | > 10 | > 10 | > 10 | > 10 | > 10 | > 10 | > 10 | > 10 | > 10 | > 10 µM | > 10 | > 10 | > 10 | > 10 | > 10 | > 10 |
| CC1CN1c1c(C(=O)/C=C/c2ccccc2)c(-c2ccccc2)nn(C)c1=O (stereo not drawn) |  |  |  | 61.4 µM |  |  |  |  |  |  |  | 44.2 |  | 36.4 µM |  | 27.4 |  |  |  | 49.7 |
| c1ccc(P(=Nc2ccccc2N=P(c2ccccc2)(c2ccccc2)c2ccccc2)(c2ccccc2)c2ccccc2)cc1 |  | 12.6 |  |  |  |  |  |  |  |  |  | 12.8 |  | 12.5 µM |  |  |  |  |  | 3.43 |
| COCCOCOc1ccc(OCOCCOC)c2c1C(=O)c1ccccc1C2=O |  |  |  | > 100 µM |  |  |  |  |  |  |  | > 100 |  | > 88.9 µM |  | > 100 |  |  |  | > 100 |
| C/C1=C\[C@@H](O)C(=O)/C=C/C=C\c2csc(n2)[C@@H](C)NC(=O)C[C@@]2(CC1)S(=O)SC(=O)[C@]2(C)O (stereo partly drawn) | > 100 | > 100 | 0.0131 | 0.861 µM and 0.138 µM |  | 0.435 |  | 0.11 |  | 0.0217 |  |  |  | 0.115 µM and 0.0222 µM |  |  |  | 0.0062 |  | 7.36 |
| CCO/C=C1\N=C(c2ccccc2Br)OC1=O |  | > 100 |  | > 100 µM |  |  |  |  |  |  |  |  |  | > 100 µM |  | > 100 |  |  |  | > 100 |
| COc1ccc(OC)c(C2SCC(=O)N2NC(=O)C(O)c2ccccc2)c1 (stereo not drawn) | > 100 | > 100 | > 100 | > 100 µM | > 100 | > 100 |  |  | > 100 | > 100 | > 100 | > 100 | > 100 | > 100 µM | > 100 | > 100 | > 100 | > 100 |  |  |
| CC1NC(=O)C(NC(=O)c2cnc3ccccc3n2)COC(=O)C(C(C)C)N(C)C(=O)C2CSSCC(C(=O)N(C)C(C(C)C)C(=O)OCC(NC(=O)c3cnc4ccccc4n3)C(=O)NC(C)C(=O)N2C)N(C)C1=O (stereo not drawn) (I: Quinoxaline2carbonyl-SA[NMeC][NMeV] / II: Quinoxaline2carbonyl-SA[NMeC][NMeV]; ester I:1-II:C, I:C-II:1; disulfide I:3-II:3; configuration not given here) |  | < 0.01 |  | > 5.39 µM |  | < 0.01 |  | 0.662 |  |  |  | 3.17 |  | 0.0162 µM |  | 0.365 |  | < 0.01 |  | < 0.01 |
| O=P1(Oc2ccccc2)C(c2ccccc2)C(c2ccccc2)=NN1c1ccccc1 (stereo not drawn) |  |  |  | > 100 µM |  |  |  |  |  |  |  | 64.4 |  | 75.8 µM |  | 44.7 |  |  |  | 47 |
| COc1ccc(C2[C@@H](Cl)C(=O)N2c2cc(OC)c(OC)c(OC)c2)cc1Cl (stereo partly drawn) | 0.279 | 3.47 | 0.94 | 71.7 µM | 0.0705 | 70.3 | 0.0692 | > 100 |  |  | 0.178 | 18.5 |  |  | 0.191 | > 100 | 0.102 | 0.61 | 0.175 | 0.463 |
| CCOC(=O)C(=O)Nc1cc(Cl)ccc1Cl |  | > 100 |  | > 100 µM |  |  |  |  |  |  |  | > 100 |  | > 100 µM |  | > 100 |  |  |  | > 100 |
| N#Cc1ccc(N=Cc2c([O-])ccc3ccccc23)cc1.[C-]#[O+].[C-]#[O+].[Ir] | 5 | 25.1 | 4.35 | 13.5 µM |  |  |  |  |  |  | 16.6 | 30.2 | 10.6 | 29 µM |  |  |  |  | 1.5 | 5.18 |
| Cc1ccc(C2=Nc3ccccc3SC(c3cccc([N+](=O)[O-])c3)C2)cc1 (stereo not drawn) |  | 5.19 |  | 86.8 µM |  | 94.7 |  | > 100 |  | 72.5 |  | 36.8 |  | > 100 µM |  | > 100 |  | 83.6 |  |  |
| [N-]=[N+]=C1C(=O)C2CC3CC(C2)CC1C3 |  | > 100 |  | > 100 µM |  |  |  |  |  |  |  | > 100 |  | > 100 µM |  | > 100 |  |  |  | > 100 |
| COC(=O)CC1NC(=O)C1C1(C)OCCO1 (stereo not drawn) |  | > 100 |  | > 100 µM |  |  |  |  |  |  |  |  |  | > 100 µM |  | > 100 |  |  |  | > 100 |
| COC(CN1C=C(Sc2ccccc2)CC1)OC |  | 50.7 |  | > 100 µM |  |  |  |  |  |  |  | 67.8 |  | 98.1 µM |  | > 100 |  |  |  | 34 |
| c1ccc2c3c([nH]c2c1)C1CCCN1CC3 (stereo not drawn) |  | > 10 |  | > 10 µM |  | > 10 |  | > 10 |  | > 10 |  | > 10 |  | > 10 µM |  | > 10 |  |  |  | > 10 |
| CN(C)CCC(/C=C/c1ccccc1)=N\Nc1ccc(Cl)cc1Cl |  | 30.1 |  | 27.2 µM |  |  |  |  |  |  |  | 29.7 |  | 27 µM |  | 24.2 |  |  |  | 16.7 |
| COc1ccc(C=O)c(NC(=O)C(C)C)c1 |  | 66.3 |  | > 100 µM |  |  |  |  |  |  |  | > 10 |  | > 100 µM |  | > 100 |  |  |  |  |
| Cc1cc2c(c(C(=O)O)c1C)-c1cccc(F)c1C2=O |  | > 100 |  | > 100 µM |  |  |  |  |  |  |  | > 100 |  | > 100 µM |  | > 100 |  |  |  |  |
